The values below come from US20150087673A1, “METHODS FOR USING AND BIOMARKERS FOR AMPK-ACTIVATING COMPOUNDS” (RIGEL PHARMACEUTICALS, INC., priority 2013, published 2015).

This experiment has as its system AMPK. The experiment is described as follows: AMPK activation assay (enzyme-linked immunosorbent assay). It counts as cell-based. The method, boiled down:
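Activation by each compound is measured using a conventional commercial immunoassay kit.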
Take `COc1ccc(C(=O)C2CCN(C(=O)c3ncc(C(=O)NC4CCN(Cc5ccc(C#N)cc5)CC4)cc3CCCNC(=O)OC(C)(C)C)CC2)cc1` [Compound 416, tert-butyl 3-(5-(1-(4-cyanobenzyl)piperidin-4-ylcarbamoyl)-2-(4-(4-methoxybenzoyl)piperidine-1-carbonyl)pyridin-3-yl)propylcarbamate]: the EC50 (usually the concentration that produces a half-maximal response) fell in the range of 1000 to 5000 nM.
Then `O=C(c1cccc(C(=O)N2CCN(Cc3ccc(F)cc3)CC2)n1)N1CCN(CCc2ccccc2)CC1` [Compound 93, (4-(4-fluorobenzyl)piperazin-1-yl)(6-(4-phenethylpiperazine-1-carbonyl)pyridin-2-yl)methanone], with more than 10000 nM; and `N#Cc1ccc(CN2CCC(NC(=O)c3ccc(C(=O)N4CCC(C(=O)c5cccs5)CC4)cn3)CC2)cc1` [Compound 419, N-(1-(4-cyanobenzyl)piperidin-4-yl)-5-(4-(thiophene-2-carbonyl)piperidine-1-carbonyl)picolinamide], with less than 500 nM.
For `CC(C)(C)OC(=O)NCC#Cc1cc(C(=O)N2CCN(Cc3ccc(F)cc3)CC2)cnc1C(=O)NC1CCN(Cc2ccc(C#N)cc2)CC1` [Compound 164, tert-butyl 3-(2-(1-(4-cyanobenzyl)piperidin-4-ylcarbamoyl)-5-(4-(4-fluorobenzyl)piperazine-1-carbonyl)pyridin-3-yl)prop-2-ynylcarbamate] the value was 500 to 1000 nM.
As to `CS(=O)(=O)c1ccc(C(=O)C2CCN(C(=O)c3ccc(C(=O)N[C@@H]4CCN(Cc5ccc(C#N)cc5)C[C@H]4F)nc3)CC2)cc1` (relative stereo) [Compound 252, N-((trans)-1-(4-cyanobenzyl)-3-fluoropiperidin-4-yl)-5-(4-(4-(methylsulfonyl)benzoyl)piperidine-1-carbonyl)picolinamide], the concentration for a half-maximal effect (EC50) was 500 to 1000 nM.
Molecule `N#Cc1ccc(CN2CCC(NC(=O)c3ccc(C(=O)N4C5CCC4CC(Oc4ccc(C#N)cc4)C5)cn3)CC2)cc1` [Compound 280, N-(1-(4-cyanobenzyl)piperidin-4-yl)-5-((1R,3r,5S)-3-(4-cyanophenoxy)-8-azabicyclo[3.2.1]octane-8-carbonyl)picolinamide] showed a half-maximal effective concentration (EC50) of less than 500 nM.
In the case of `N#Cc1ccc(CN2CCC(NC(=O)c3ccc(C(=O)N4CCC(Oc5ccc(F)cc5F)CC4)nc3)CC2)cc1` [Compound 345, N-(1-(4-cyanobenzyl)piperidin-4-yl)-6-(4-(2,4-difluorophenoxy)piperidine-1-carbonyl)nicotinamide], the EC50 is less than 500 nM.
`CS(=O)(=O)c1ccc(OC2CCN(C(=O)c3ccc(C(=O)NC4CCN(Cc5ccc(C#N)cc5)CC4)cn3)CC2)cc1` [Compound 397, N-(1-(4-cyanobenzyl)piperidin-4-yl)-6-(4-(4-(methylsulfonyl)phenoxy)piperidine-1-carbonyl)nicotinamide] gave a concentration giving a half-maximal response (EC50) of less than 500 nM.
Then `N#Cc1ccc(CN2CCC(NC(=O)c3ccc(-c4cn(Cc5ccccc5)nn4)cn3)CC2)cc1` [Compound 121, 5-(1-benzyl-1H-1,2,3-triazol-4-yl)-N-(1-(4-cyanobenzyl)piperidin-4-yl)picolinamide], with 1000 to 5000 nM; and `O=C(Nc1ccc(Oc2ccc(F)cc2)nc1)c1ccc(C(=O)N2CCC(C(=O)c3ccc(F)cc3F)CC2)nc1` [Compound 348, 6-(4-(2,4-difluorobenzoyl)piperidine-1-carbonyl)-N-(6-(4-fluorophenoxy)pyridin-3-yl)nicotinamide], with less than 500 nM.
Then `N#Cc1ccc(CN2CCC(NC(=O)c3ccc(C(=O)Nc4cnn(Cc5ccc(C#N)cc5)c4)cn3)CC2)cc1` [Compound 43, N^5-(1-(4-cyanobenzyl)-1H-pyrazol-4-yl)-N^2-(1-(4-cyanobenzyl)piperidin-4-yl)pyridine-2,5-dicarboxamide], with 1000 to 5000 nM.
As for `N#Cc1ccc(CN2CCC(NC(=O)c3ccc(C(=O)N4CCCC(Cc5ccc(F)cc5)C4)cn3)CC2)cc1` (stereo not shown) [Compound 152, N-(1-(4-cyanobenzyl)piperidin-4-yl)-5-(3-(4-fluorobenzyl)piperidine-1-carbonyl)picolinamide], the concentration for a half-maximal effect (EC50) is less than 500 nM.
On to `O=C(NC1CCN(Cc2cc(F)cc(F)c2)CC1)c1ccc(C(=O)N2CC[C@H](Oc3ccc(F)cc3)C2)cn1` [Compound 292, N-(1-(3,5-difluorobenzyl)piperidin-4-yl)-5-((S)-3-(4-fluorophenoxy)pyrrolidine-1-carbonyl)picolinamide], for which the EC50 is less than 500 nM.
Regarding `COc1ccc(C(=O)C2CCN(C(=O)c3ccc(C(=O)Nc4ccc(Oc5ccc(C(=O)N(C)C)cc5)nc4)cn3)CC2)cc1` [Compound 480, N-(6-(4-(dimethylcarbamoyl)phenoxy)pyridin-3-yl)-6-(4-(4-methoxybenzoyl)piperidine-1-carbonyl)nicotinamide], the concentration giving a half-maximal response (EC50) is less than 500 nM.
For the molecule `O=C(NC1CCN(Cc2ccc(F)cc2)CC1)c1ccc(C(=O)N2CCN(Cc3ccc(F)cc3)CC2)nc1` [Compound 328, 6-(4-(4-fluorobenzyl)piperazine-1-carbonyl)-N-(1-(4-fluorobenzyl)piperidin-4-yl)nicotinamide], the EC50 was less than 500 nM.
Take `O=C(Nc1ccc(Oc2ccc(F)cc2)cc1)c1ccc(C(=O)N2CCN(Cc3ccc(F)cc3)CC2)cn1` [Compound 60, 5-(4-(4-fluorobenzyl)piperazine-1-carbonyl)-N-(4-(4-fluorophenoxy)phenyl)picolinamide]: the EC50 is less than 500 nM.
As for `COc1ccc(C(=O)C2CCN(C(=O)c3ccc(C(=O)NC4CCN(Cc5ccc(C#N)cc5)CC4)nn3)CC2)cc1` [Compound 387, N-(1-(4-cyanobenzyl)piperidin-4-yl)-6-(4-(4-methoxybenzoyl)piperidine-1-carbonyl)pyridazine-3-carboxamide], the EC50 was less than 500 nM.
The molecule `COc1ccc(CN2CCC(NC(=O)c3ccc(C(=O)N4CCC(C(=O)c5ccc(S(C)(=O)=O)cc5)CC4)nc3)CC2)cc1` [Compound 223, N-(1-(4-methoxybenzyl)piperidin-4-yl)-6-(4-(4-(methylsulfonyl)benzoyl)piperidine-1-carbonyl)nicotinamide] registered a concentration for a half-maximal effect (EC50) of 1000 to 5000 nM.
Consider `COc1ccc(C(=O)C2CCN(C(=O)c3ccc(C(=O)NCCOc4ccc(F)cc4)nc3)CC2)cc1` [Compound 305, N-(2-(4-fluorophenoxy)ethyl)-5-(4-(4-methoxybenzoyl)piperidine-1-carbonyl)picolinamide], for which the concentration for a half-maximal effect (EC50) was less than 500 nM.
Then `N#Cc1ccc(CN2CCC(NC(=O)c3ccc(C(=O)N4CCC(C(=O)c5ccc(N6CCCC6)cc5)CC4)cn3)CC2)cc1` [Compound 365, N-(1-(4-cyanobenzyl)piperidin-4-yl)-5-(4-(4-(pyrrolidin-1-yl)benzoyl)piperidine-1-carbonyl)picolinamide], with less than 500 nM; and `COc1cccc(OC2CCCN(C(=O)c3ccc(C(=O)NC4CCN(Cc5ccc(C#N)cc5)CC4)nc3)C2)c1` (stereo not shown) [Compound 277, N-(1-(4-cyanobenzyl)piperidin-4-yl)-5-(3-(3-methoxyphenoxy)piperidine-1-carbonyl)picolinamide], with less than 500 nM; and `O=C(Nc1ccc(Oc2ccc(F)cc2)nc1)c1cnc(C(=O)N2CCC(Oc3ccc(C(F)(F)F)cc3)CC2)cn1` [Compound 205, N-(6-(4-fluorophenoxy)pyridin-3-yl)-5-(4-(4-(trifluoromethyl)phenoxy)piperidine-1-carbonyl)pyrazine-2-carboxamide], with less than 500 nM.
Consider `O=C(Nc1ccc(Oc2ccc(F)cc2)nc1)c1ccc(C(=O)N2CCC(Oc3ccc(F)cc3)CC2)cn1` [Compound 273, 5-(4-(4-fluorophenoxy)piperidine-1-carbonyl)-N-(6-(4-fluorophenoxy)pyridin-3-yl)picolinamide], for which the concentration giving a half-maximal response (EC50) was less than 500 nM.
As to `N#Cc1ccc(CN2CCC(NC(=O)c3ccc(C(=O)N4CCC(F)(C(=O)c5ccc(F)cc5)CC4)cn3)CC2)cc1` [Compound 68, N-(1-(4-cyanobenzyl)piperidin-4-yl)-5-(4-(4-fluoro-4-fluorobenzoyl)piperidine-1-carbonyl)picolinamide], the EC50 was less than 500 nM.
Molecule `CC(c1ccccc1)N1CCC(NC(=O)c2ccc(C(=O)N3CCN(Cc4ccc(F)cc4)CC3)cn2)CC1` (stereo not shown) [Compound 18, 5-(4-(4-fluorobenzyl)piperazine-1-carbonyl)-N-(1-(1-phenylethyl)piperidin-4-yl)picolinamide] gave an EC50 of less than 500 nM.
As for `O=C(Nc1ccc(-c2ccc(C(F)(F)F)cc2)cc1)c1ccc(C(=O)N2CCN(Cc3ccc(F)cc3)CC2)cn1` [Compound 25, 5-(4-(4-fluorobenzyl)piperazine-1-carbonyl)-N-(4-(4-trifluoromethylphenyl)phenyl)picolinamide], the 50% effective concentration (EC50) is less than 500 nM.
`COc1ccc(C(=O)C2CCN(C(=O)c3ccc(C(=O)N[C@@H]4CCN(Cc5ccc(N6CCCC6)cc5)C[C@H]4F)cn3)CC2)cc1` (relative stereo) [Compound 352, N-((trans)-3-fluoro-1-(4-(pyrrolidin-1-yl)benzyl)piperidin-4-yl)-6-(4-(4-methoxybenzoyl)piperidine-1-carbonyl)nicotinamide] returned an EC50 of less than 500 nM.
Then `O=C(Nc1ccc(Oc2ccc(F)cc2)nc1)c1ccc(C(=O)N2CCC(Oc3ccc(S(=O)(=O)C4CC4)cc3)CC2)nc1` [Compound 247, 6-(4-(4-(cyclopropylsulfonyl)phenoxy)piperidine-1-carbonyl)-N-(6-(4-fluorophenoxy)pyridin-3-yl)nicotinamide], with less than 500 nM; and `N#Cc1ccc(CN2CCC(NC(=O)c3ccc(C(=O)N4CCCCC4Cc4ccc(F)cc4)cn3)CC2)cc1` (stereo not shown) [Compound 153, N-(1-(4-cyanobenzyl)piperidin-4-yl)-5-(2-(4-fluorobenzyl)piperidine-1-carbonyl)picolinamide], with 1000 to 5000 nM.
`COc1cccc(CN2CCC(NC(=O)c3ccc(C(=O)N4CCC(Oc5ccc(S(C)(=O)=O)cc5)CC4)cn3)CC2)c1` [Compound 241, N-(1-(3-methoxybenzyl)piperidin-4-yl)-5-(4-(4-(methylsulfonyl)phenoxy)piperidine-1-carbonyl)picolinamide] had an EC50 of less than 500 nM.
Then `N#Cc1ccc(CN2CCC(NC(=O)c3ccc(N4CCN(Cc5ccc(F)cc5)CC4)nn3)CC2)cc1` [Compound 491, N-(1-(4-cyanobenzyl)piperidin-4-yl)-6-(4-(4-fluorobenzyl)piperazin-1-yl)pyridazine-3-carboxamide], with 1000 to 5000 nM.
